Experimental data taken from patent US11697648B2, “Fused pyrimidine pyridinone compounds as JAK inhibitors” (THERAVANCE BIOPHARMA R&D IP, LLC, priority 2019, dated 2023).

How the values were obtained:
[1] = tested on: IL-2 stimulated STAT5 phosphorylation in Tall-1 human T cell line (JAK3); assay: Cellular JAK3 potency assay: inhibition of IL-2 stimulated pSTAT5 in Tall-1 T cells; type: cell-based; details: IL-2 stimulated pSTAT5, Tall-1 T cells
Procedure, shortened: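 AlphaLISA SureFire Ultra measures STAT5 Tyr694/699 phosphorylation in lysed Tall-1 human T cells. Cells were exposed to compound for 1 h at 37 °C before a 30 min IL-2 challenge (300 ng/ml final). Values are pIC50 means with standard deviation from signal-versus-concentration curves.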

[2] = target: JAK2 (Homo sapiens (Human), UniProt O60674); assay: Biochemical JAK2 kinase assay (LanthaScreen)
Procedure, shortened: (§1)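 GST-JAK + GFP-STAT1 peptide, HEPES pH 7.5/MgCl2/EGTA/Brij-35 buffer; cpd preincubation 1 h RT; ATP start, 1 h RT; stop with 10 mM EDTA + 2 nM Tb-anti-pSTAT1; TR-FRET 520/495. 4-parameter IC50 → pKi (Cheng-Prusoff).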

[3] = target: Tyk2 (Homo sapiens (Human), UniProt P29597); assay: Biochemical Tyk2 kinase assay (LanthaScreen)
Procedure, shortened: as §1

[4] = target: JAK1 (Homo sapiens (Human), UniProt P23458); assay: Biochemical JAK1 kinase assay (LanthaScreen)
Procedure, shortened: as §1

[5] = target: JAK3 (Homo sapiens (Human), UniProt P52333); assay: Biochemical JAK3 kinase assay (LanthaScreen); details: for JAK3 (pKi)-JAK1 (pKi): selectivity JAK3 over JAK1, difference of pKi
Procedure, shortened: as §1

[6] = tested on: Caco-2 cell monolayers; assay: Caco-2 permeation assay; type: in vitro ADME; details: 5 μM, A-B direction, with Verapamil (25 μM)
Experimental: Assay 4: Caco-2 Permeation Assay
The Caco-2 permeation assay was performed to model the ability of test compounds to pass through the intestine and get into the blood stream after oral administration. The rate at which test compounds in solution permeate a cell monolayer designed to mimic the tight junction of human small intestinal monolayers was determined.
CacoReady 24-well transwell plates were obtained from ADMEcell (Alameda, Calif.). The compounds were evaluated at a concentration of 5 μM from 10 mM DMSO stock solutions in duplicate (n=2). The passive permeability of the compounds tested was evaluated using Caco-2 cell monolayers along with Verapamil (25 μM) to inhibit P-gp transport proteins in the apical to basolateral (A-B) direction. The experiment was conducted in a 37° C., 5% CO2 incubator. Caco-2 culture media consisted of standard filtered DMEM, FCS 10%, L-Glutamine 1% and PenStrep 1%. Basal assay plate was prepared by adding 750 μL of transport buffer to A-B wells. A CacoReady™ plate was prepared by removing the Caco-2 media from the apical wells and replacing with fresh transport media (200 μL repeated for a total of 3 washes). Blank media (200 μL) was then replaced with diluted compound for A-B wells. To begin the incubation, the basal plate was removed from the incubator and the apical section was added on top of it. Samples (40 μL) were collected from the apical and basal compartments for time zero (t0). Samples were collected again after 120 minutes (t120) from the apical and basal compartments. All samples were diluted and prepared for bioanalysis by LC-MS/MS. The permeation coefficient (Kp, mean A to B+ Verapamil Papparent) in cm/sec was calculated as dQ (flux)/(dt×Area×concentration).
In this assay, a Kp value less than about 5×10^−6 cm/sec is considered favorable to minimize systemic exposure and target the colon. A Kp value less than about 10×10^−6 cm/sec may also be sufficient to minimize systemic exposure and target the colon.

Tyk2, sequence (P29597 whole entry): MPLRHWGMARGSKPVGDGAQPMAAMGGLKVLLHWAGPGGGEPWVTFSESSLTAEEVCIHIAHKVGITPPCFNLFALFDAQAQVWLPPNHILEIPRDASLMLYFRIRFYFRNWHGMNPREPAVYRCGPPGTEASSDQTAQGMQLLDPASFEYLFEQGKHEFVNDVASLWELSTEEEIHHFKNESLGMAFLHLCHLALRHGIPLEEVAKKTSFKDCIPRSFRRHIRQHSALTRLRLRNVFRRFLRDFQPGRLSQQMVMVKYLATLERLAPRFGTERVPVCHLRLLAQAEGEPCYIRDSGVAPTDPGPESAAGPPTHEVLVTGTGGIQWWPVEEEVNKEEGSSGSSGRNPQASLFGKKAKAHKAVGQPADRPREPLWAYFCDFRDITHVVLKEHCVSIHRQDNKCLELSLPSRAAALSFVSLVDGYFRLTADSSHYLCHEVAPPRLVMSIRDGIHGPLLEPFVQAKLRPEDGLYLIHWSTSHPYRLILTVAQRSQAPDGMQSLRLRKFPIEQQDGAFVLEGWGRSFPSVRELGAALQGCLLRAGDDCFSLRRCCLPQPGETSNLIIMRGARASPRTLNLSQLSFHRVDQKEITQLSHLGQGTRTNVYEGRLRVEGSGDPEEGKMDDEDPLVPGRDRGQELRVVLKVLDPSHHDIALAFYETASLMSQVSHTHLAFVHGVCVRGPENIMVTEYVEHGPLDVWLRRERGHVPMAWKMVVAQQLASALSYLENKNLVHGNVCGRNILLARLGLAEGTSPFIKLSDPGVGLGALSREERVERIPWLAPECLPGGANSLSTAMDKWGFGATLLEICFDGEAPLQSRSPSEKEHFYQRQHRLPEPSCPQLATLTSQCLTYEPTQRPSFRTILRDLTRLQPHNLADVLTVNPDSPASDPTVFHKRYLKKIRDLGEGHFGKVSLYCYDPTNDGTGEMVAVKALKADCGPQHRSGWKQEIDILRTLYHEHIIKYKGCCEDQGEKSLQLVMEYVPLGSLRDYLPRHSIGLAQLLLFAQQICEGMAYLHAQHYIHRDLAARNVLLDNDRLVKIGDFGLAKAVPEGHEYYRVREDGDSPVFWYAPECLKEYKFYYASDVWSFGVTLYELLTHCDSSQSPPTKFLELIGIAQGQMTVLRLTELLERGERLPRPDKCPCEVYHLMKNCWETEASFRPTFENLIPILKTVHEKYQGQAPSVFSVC
JAK3, sequence (P52333 whole entry): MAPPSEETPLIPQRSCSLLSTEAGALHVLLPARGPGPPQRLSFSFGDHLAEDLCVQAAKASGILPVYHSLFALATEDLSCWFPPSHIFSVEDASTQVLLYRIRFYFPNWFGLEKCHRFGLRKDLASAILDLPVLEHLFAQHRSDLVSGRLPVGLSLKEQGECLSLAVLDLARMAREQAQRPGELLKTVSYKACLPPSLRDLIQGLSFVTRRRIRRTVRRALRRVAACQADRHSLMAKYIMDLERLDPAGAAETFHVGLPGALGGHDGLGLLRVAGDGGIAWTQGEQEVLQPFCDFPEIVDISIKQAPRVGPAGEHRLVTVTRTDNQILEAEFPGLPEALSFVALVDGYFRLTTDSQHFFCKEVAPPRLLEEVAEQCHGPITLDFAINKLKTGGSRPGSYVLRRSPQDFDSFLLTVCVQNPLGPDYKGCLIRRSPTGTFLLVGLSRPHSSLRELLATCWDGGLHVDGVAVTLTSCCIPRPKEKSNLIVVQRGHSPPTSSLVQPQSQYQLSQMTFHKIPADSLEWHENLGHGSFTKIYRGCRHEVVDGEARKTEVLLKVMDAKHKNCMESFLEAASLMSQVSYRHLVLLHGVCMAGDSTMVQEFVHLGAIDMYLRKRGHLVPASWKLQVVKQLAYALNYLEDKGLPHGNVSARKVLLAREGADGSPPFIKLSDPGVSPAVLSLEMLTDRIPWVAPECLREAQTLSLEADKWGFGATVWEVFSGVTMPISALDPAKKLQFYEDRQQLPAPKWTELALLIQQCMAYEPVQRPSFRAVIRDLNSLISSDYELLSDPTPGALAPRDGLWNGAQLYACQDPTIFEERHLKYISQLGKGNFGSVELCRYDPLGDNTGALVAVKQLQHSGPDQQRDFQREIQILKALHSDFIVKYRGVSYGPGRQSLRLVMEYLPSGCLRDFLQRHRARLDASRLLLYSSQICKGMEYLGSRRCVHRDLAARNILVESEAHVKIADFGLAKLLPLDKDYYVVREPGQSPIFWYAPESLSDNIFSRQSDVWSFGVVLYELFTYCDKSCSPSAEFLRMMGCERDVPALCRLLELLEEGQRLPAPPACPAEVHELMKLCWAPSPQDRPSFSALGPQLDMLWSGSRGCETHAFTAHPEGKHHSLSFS
JAK2, sequence (O60674 whole entry): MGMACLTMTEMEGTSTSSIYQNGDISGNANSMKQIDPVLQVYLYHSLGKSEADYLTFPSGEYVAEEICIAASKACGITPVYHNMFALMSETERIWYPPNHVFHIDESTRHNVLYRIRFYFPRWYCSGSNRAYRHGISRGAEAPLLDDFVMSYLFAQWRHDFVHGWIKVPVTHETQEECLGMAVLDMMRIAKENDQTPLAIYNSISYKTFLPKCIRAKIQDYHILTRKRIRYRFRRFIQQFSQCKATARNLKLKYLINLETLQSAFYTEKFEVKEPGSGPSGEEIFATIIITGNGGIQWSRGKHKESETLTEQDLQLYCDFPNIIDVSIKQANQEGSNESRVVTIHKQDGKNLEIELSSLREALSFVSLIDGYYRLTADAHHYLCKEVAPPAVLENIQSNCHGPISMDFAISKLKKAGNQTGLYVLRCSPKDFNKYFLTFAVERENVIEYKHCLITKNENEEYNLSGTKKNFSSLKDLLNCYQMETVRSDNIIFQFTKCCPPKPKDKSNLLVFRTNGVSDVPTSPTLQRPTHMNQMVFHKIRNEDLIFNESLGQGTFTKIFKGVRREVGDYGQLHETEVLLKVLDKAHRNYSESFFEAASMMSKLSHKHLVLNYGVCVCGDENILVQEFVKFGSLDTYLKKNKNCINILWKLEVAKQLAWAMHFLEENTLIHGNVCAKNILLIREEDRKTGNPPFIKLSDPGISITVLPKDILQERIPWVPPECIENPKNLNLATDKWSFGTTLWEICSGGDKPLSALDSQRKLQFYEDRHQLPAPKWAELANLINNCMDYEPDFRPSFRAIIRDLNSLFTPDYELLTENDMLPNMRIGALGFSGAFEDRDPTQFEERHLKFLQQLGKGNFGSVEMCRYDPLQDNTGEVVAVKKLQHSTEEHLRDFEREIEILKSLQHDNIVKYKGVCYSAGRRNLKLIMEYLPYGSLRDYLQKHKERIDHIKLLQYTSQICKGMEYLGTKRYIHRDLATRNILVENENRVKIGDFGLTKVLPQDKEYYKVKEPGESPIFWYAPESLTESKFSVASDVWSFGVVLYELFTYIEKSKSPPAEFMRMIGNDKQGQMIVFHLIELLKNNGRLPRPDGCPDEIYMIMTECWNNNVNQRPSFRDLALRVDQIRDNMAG
JAK1, sequence (P23458 whole entry): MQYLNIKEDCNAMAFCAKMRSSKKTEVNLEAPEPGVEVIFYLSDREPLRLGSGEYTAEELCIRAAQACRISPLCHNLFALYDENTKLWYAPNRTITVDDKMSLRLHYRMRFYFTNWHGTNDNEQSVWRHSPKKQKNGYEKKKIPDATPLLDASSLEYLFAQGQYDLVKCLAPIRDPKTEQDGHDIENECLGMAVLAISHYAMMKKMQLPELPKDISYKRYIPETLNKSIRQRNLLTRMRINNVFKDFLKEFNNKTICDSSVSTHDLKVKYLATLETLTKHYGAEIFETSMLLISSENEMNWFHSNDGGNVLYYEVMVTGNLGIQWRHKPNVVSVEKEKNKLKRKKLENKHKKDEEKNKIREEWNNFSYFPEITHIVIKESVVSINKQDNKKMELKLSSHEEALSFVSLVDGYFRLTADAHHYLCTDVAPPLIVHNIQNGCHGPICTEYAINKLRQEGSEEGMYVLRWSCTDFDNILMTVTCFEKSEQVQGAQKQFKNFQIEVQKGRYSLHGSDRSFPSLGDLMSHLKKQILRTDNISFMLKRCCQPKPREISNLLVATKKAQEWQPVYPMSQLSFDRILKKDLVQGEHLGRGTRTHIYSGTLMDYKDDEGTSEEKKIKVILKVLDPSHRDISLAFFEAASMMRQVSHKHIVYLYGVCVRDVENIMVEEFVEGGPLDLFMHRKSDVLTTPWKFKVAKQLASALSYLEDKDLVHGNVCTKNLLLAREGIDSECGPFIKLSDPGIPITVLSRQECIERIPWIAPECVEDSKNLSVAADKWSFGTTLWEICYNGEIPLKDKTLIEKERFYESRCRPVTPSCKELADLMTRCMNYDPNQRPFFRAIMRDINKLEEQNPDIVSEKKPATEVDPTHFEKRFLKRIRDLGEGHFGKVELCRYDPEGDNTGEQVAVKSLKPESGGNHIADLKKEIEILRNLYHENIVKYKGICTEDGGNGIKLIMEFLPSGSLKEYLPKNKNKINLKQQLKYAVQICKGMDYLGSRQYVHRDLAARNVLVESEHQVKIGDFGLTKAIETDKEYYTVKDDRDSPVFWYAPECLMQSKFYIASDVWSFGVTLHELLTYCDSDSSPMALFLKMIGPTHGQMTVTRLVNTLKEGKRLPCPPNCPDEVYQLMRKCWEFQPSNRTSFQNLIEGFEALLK

Row | SMILES | Tall-1 (pIC50) [1] | JAK 2 (pKi) [2] | Tyk 2 (pKi) [3] | JAK 1 (pKi) [4] | JAK 3 (pKi) [5] | JAK3 (pKi)-JAK1 (pKi) [5] | Caco Kp [6]
1 | C=CC(=O)N1CC(CCn2c(=O)ccc3cnc(Nc4ccc(N5CCN(C(C)=O)C[C@H]5C)cc4)nc32)C1 [Example 10, (R)-2-((4-(4-acetyl-2-methylpiperazin-1-yl)phenyl)amino)-8-(2-(1-acryloylazetidin-3-yl)ethyl)pyrido[2,3-d]pyrimidin-7(8H)-one] | A (A represents a pIC50 value≥7.5 (IC50≤32 nM)) | E (E represents a pKi value of 7 or below (Ki of 100 nM or above)) | E (E represents a pKi value of 7 or below (Ki of 100 nM or above)) | E (E represents a pKi value of 7 or below (Ki of 100 nM or above)) | A (A represents a pKi value≥10 (Ki≤0.1 nM)) | A (A represents a value of 3 or above) | A (A represents a value below 5×10^−6 cm/sec)
2 | C=CC(=O)N1CC(CCn2c(=O)ccc3cnc(Nc4ccc(N5CCN(C)CC5)cn4)cc32)C1 [Example 14] | A (A represents a pIC50 value≥7.5 (IC50≤32 nM)) | E (E represents a pKi value of 7 or below (Ki of 100 nM or above)) | E (E represents a pKi value of 7 or below (Ki of 100 nM or above)) | E (E represents a pKi value of 7 or below (Ki of 100 nM or above)) | B (B represents pKi value between 9 and 10 (Ki between 1 nM and 0.1 nM)) | A (A represents a value of 3 or above) | A (A represents a value below 5×10^−6 cm/sec)
3 | C=CC(=O)N1CCN(CCn2c(=O)ccc3cnc(Nc4cnn(C)c4)nc32)CC1 [Example 16] | C (C represents a pIC50 value between 6 and 6.7 (IC50 between 1 μM and 200 nM)) | E (E represents a pKi value of 7 or below (Ki of 100 nM or above)) | E (E represents a pKi value of 7 or below (Ki of 100 nM or above)) | E (E represents a pKi value of 7 or below (Ki of 100 nM or above)) | B (B represents pKi value between 9 and 10 (Ki between 1 nM and 0.1 nM)) | A (A represents a value of 3 or above) | A (A represents a value below 5×10^−6 cm/sec)
4 | C=CC(=O)N1CC(CCn2c(=O)ccc3cnc(Nc4ccccc4)nc32)C1 [Example 18] | B (B represents a pC50 value between 6.7 (included) and 7.5 (IC50 between 200 nM and 32 nM)) | E (E represents a pKi value of 7 or below (Ki of 100 nM or above)) | E (E represents a pKi value of 7 or below (Ki of 100 nM or above)) | E (E represents a pKi value of 7 or below (Ki of 100 nM or above)) | A (A represents a pKi value≥10 (Ki≤0.1 nM)) | A (A represents a value of 3 or above) | C (C represents a value between 10×10^−6 and 30×10^−6 cm/sec)
5 | C=CC(=O)N1CC(CCn2c(=O)ccc3cnc(Nc4cccc(OC)c4)nc32)C1 [Example 19] | C (C represents a pIC50 value between 6 and 6.7 (IC50 between 1 μM and 200 nM)) | E (E represents a pKi value of 7 or below (Ki of 100 nM or above)) | E (E represents a pKi value of 7 or below (Ki of 100 nM or above)) | E (E represents a pKi value of 7 or below (Ki of 100 nM or above)) | B (B represents pKi value between 9 and 10 (Ki between 1 nM and 0.1 nM)) | A (A represents a value of 3 or above) | C (C represents a value between 10×10^−6 and 30×10^−6 cm/sec)
6 | C=CC(=O)N1CC(CCn2c(=O)ccc3cnc(Nc4cnn(CCOC(F)F)c4)nc32)C1 [Example 25] | C (C represents a pIC50 value between 6 and 6.7 (IC50 between 1 μM and 200 nM)) | E (E represents a pKi value of 7 or below (Ki of 100 nM or above)) | E (E represents a pKi value of 7 or below (Ki of 100 nM or above)) | E (E represents a pKi value of 7 or below (Ki of 100 nM or above)) | B (B represents pKi value between 9 and 10 (Ki between 1 nM and 0.1 nM)) | A (A represents a value of 3 or above) | B (B represents a value between 5×10^−6 and 10×10^−6 cm/sec)
7 | C=CC(=O)N1CCN(CCn2c(=O)ccc3cnc(Nc4cnn(C)c4)nc32)[C@@H](C)C1 [Example 30] | B (B represents a pC50 value between 6.7 (included) and 7.5 (IC50 between 200 nM and 32 nM)) | E (E represents a pKi value of 7 or below (Ki of 100 nM or above)) | E (E represents a pKi value of 7 or below (Ki of 100 nM or above)) | E (E represents a pKi value of 7 or below (Ki of 100 nM or above)) | A (A represents a pKi value≥10 (Ki≤0.1 nM)) | A (A represents a value of 3 or above) | A (A represents a value below 5×10^−6 cm/sec)
8 | C=CC(=O)N1CCN(CCn2c(=O)ccc3cnc(Nc4cnn(C)c4)nc32)CC12CC2 [Example 32] | B (B represents a pC50 value between 6.7 (included) and 7.5 (IC50 between 200 nM and 32 nM)) | E (E represents a pKi value of 7 or below (Ki of 100 nM or above)) | E (E represents a pKi value of 7 or below (Ki of 100 nM or above)) | E (E represents a pKi value of 7 or below (Ki of 100 nM or above)) | B (B represents pKi value between 9 and 10 (Ki between 1 nM and 0.1 nM)) | A (A represents a value of 3 or above) | B (B represents a value between 5×10^−6 and 10×10^−6 cm/sec)
9 | C=CC(=O)N1CC(CCn2c(=O)ccc3cnc(Nc4cnn(C5CCN(C)CC5)c4)nc32)C1 [Example 51] | B (B represents a pC50 value between 6.7 (included) and 7.5 (IC50 between 200 nM and 32 nM)) | E (E represents a pKi value of 7 or below (Ki of 100 nM or above)) | E (E represents a pKi value of 7 or below (Ki of 100 nM or above)) | E (E represents a pKi value of 7 or below (Ki of 100 nM or above)) | B (B represents pKi value between 9 and 10 (Ki between 1 nM and 0.1 nM)) | A (A represents a value of 3 or above) | A (A represents a value below 5×10^−6 cm/sec)
10 | C=CC(=O)N1CC(CCn2c(=O)ccc3cnc(Nc4cnn(CCN(CC)CC)c4)nc32)C1 [Example 55] | B (B represents a pC50 value between 6.7 (included) and 7.5 (IC50 between 200 nM and 32 nM)) | E (E represents a pKi value of 7 or below (Ki of 100 nM or above)) | E (E represents a pKi value of 7 or below (Ki of 100 nM or above)) | E (E represents a pKi value of 7 or below (Ki of 100 nM or above)) | B (B represents pKi value between 9 and 10 (Ki between 1 nM and 0.1 nM)) | A (A represents a value of 3 or above) | A (A represents a value below 5×10^−6 cm/sec)
11 | C=CC(=O)N1CC(CCn2c(=O)ccc3cnc(Nc4cnn(C5CCOCC5)c4)nc32)C1 [Example 81] | B (B represents a pC50 value between 6.7 (included) and 7.5 (IC50 between 200 nM and 32 nM)) | – | – | E (E represents a pKi value of 7 or below (Ki of 100 nM or above)) | B (B represents pKi value between 9 and 10 (Ki between 1 nM and 0.1 nM)) | A (A represents a value of 3 or above) | A (A represents a value below 5×10^−6 cm/sec)
